The values that follow come from ChEMBL document CHEMBL1201862, “PubChem BioAssay data set” (2004).

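A five-concentration, 48-hour dose response in 96-well plates underlies each endpoint, interpolated linearly between surrounding concentrations. At the GI50, growth is halved.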 Calls of active or inactive are those of the source. Cut-off read from the data, not from the text of the source: active = GI50 up to about 1.1 µM and inactive = higher.

Holding throughout (test): NCI tumour cell line growth inhibition, 48 h
Test [1] relates to LOX IMVI.
In test [2] the test system is BT-549.
For test [3], the system named is HOP-92.
The test system of test [4] is 786-0.
The subject of test [5] is SK-MEL-2.
In test [6] the test system is SN12C.
Test [7] deals with UACC-62.
In test [8] the test system is NCI-H226.
For test [9], the system named is RXF 393.
Test [10] relates to SW-620.
In test [11] the test system is SF-539.
Test [12] has as its system CCRF-CEM.
Test [13] has as its system NCI-H23.
Test [14] concerns HOP-62.
For test [15], the system named is OVCAR-8.
Test [16] relates to NCI/ADR-RES.
In test [17] the test system is RPMI-8226.
Test [18] deals with T47D.
Test [19] deals with SK-MEL-5.
Test [20] has as its system UO-31.

As to `COc1cc(Cl)c(CC(=O)c2c[nH]c3ccccc23)cc1OC`, the GI50 in test [1] was > 100 µM (inactive); in test [2], 28.2 µM (inactive); in test [3] it was 5.36 µM (inactive); in test [4], 13.7 µM (inactive); in test [5] it was 16.7 µM (inactive); in test [6] it was 58.5 µM (inactive). For the same compound, the GI50 is > 100 µM (inactive) in [7]; 12.6 µM (inactive) in [8]; 12.3 µM (inactive) in test [9]; > 100 µM (inactive) in test [10]; 6.22 µM (inactive) in [11]; > 34.6 µM (inactive) in [12]. The GI50 in [13] is > 42.5 µM (inactive); in test [14], 5.3 µM (inactive); in test [15], 8.55 µM (inactive); in test [16] it was > 81.7 µM (inactive); in test [17], > 100 µM (inactive); in test [18], > 28.5 µM (inactive). The GI50 in test [19] was > 100 µM (inactive).
Turning to `O=[N+]([O-])c1ccc(CSCc2ccc(Cl)cc2)cc1`, the GI50 in [1] was > 100 µM (inactive); in test [2], > 100 µM (inactive); in [3], 47.8 µM (inactive); in [4], > 100 µM (inactive); in [5], > 100 µM (inactive); in test [6], > 100 µM (inactive). Also, the GI50 is > 100 µM (inactive) in test [7]; > 100 µM (inactive) in test [8]; > 100 µM (inactive) in [9]; > 100 µM (inactive) in [10]; > 100 µM (inactive) in test [11]; 14.5 µM (inactive) in test [12]. For the same compound, the GI50 in test [13] is > 100 µM (inactive); in test [14], > 100 µM (inactive); in test [15] it was > 100 µM (inactive); in test [16], > 100 µM (inactive); in test [17] it was 55.7 µM (inactive); in test [20], > 100 µM (inactive). Besides, the results for the GI50 in test [18] and in [19] were 74.3 µM (inactive) and > 100 µM (inactive), respectively.
Take `CC(CSc1nc2c(c(=N)n1-c1ccccc1)c(=S)n(-c1ccccc1)c(=S)n2-c1ccccc1)CN(C)C` (stereo not drawn): the GI50 in [1] was 1.05 µM (active); in test [2], 1.78 µM (inactive); in test [3] it was 1.56 µM (inactive); in test [4], 1.15 µM (inactive); in test [5], 2.45 µM (inactive); in [6] it was 1.81 µM (inactive). For the same compound, the GI50 in test [7] was 1.7 µM (inactive); in [8], 6.38 µM (inactive); in test [9] it was 1.59 µM (inactive); in [10], 1.79 µM (inactive); in test [11] it was 3.05 µM (inactive); in test [12] it was 0.289 µM (active). For the same compound, the GI50 in [13] was 2.2 µM (inactive); in test [14], 1.88 µM (inactive); in test [15], 1.6 µM (inactive); in test [16] it was 3.08 µM (inactive); in test [17] it was 0.335 µM (active); in [18] it was 2.67 µM (inactive). The GI50 in test [19] was 2.05 µM (inactive).
For `O=c1c2ncn(COCCCl)c2n(-c2ccccc2)c(=S)n1-c1ccccc1`, the GI50 in test [1], in [2], in test [3], in test [4], in test [5] and in test [6] was > 100 µM (inactive) throughout. Also, the GI50 in [7], in test [8], in test [9], in test [10], in test [11] and in test [12] was > 100 µM (inactive) throughout. Further, the GI50 was > 100 µM (inactive) in [13]; > 100 µM (inactive) in test [14]; > 100 µM (inactive) in test [15]; > 100 µM (inactive) in test [16]; 79.8 µM (inactive) in test [17]; 57.3 µM (inactive) in test [20]. The GI50 in test [18] and in [19] was > 100 µM (inactive) throughout.
Turning to `N#Cc1c2c(c(Nc3cccc(C(F)(F)F)c3)n3c1nc1ccccc13)CCCC2`, the GI50 was 14.8 µM (inactive) in test [1]; 30.1 µM (inactive) in test [2]; 3.99 µM (inactive) in test [3]; 13.1 µM (inactive) in test [4]; 22.8 µM (inactive) in test [6]; 26.5 µM (inactive) in [8]. For the same compound, the GI50 in test [9] was 22.7 µM (inactive); in test [10], 39.1 µM (inactive); in test [11], 16.3 µM (inactive); in [13], 20.9 µM (inactive); in test [14] it was 16 µM (inactive); in test [15], 15.1 µM (inactive). The GI50 was 14.8 µM (inactive) in test [16], 19.4 µM (inactive) in test [17], > 100 µM (inactive) in [18] and 60.8 µM (inactive) in [19].
Turning to `c1ccc(COC2NCCN2Cc2ccccc2)cc1` (stereo not drawn), the GI50 in test [1], in test [2], in test [3], in test [4], in [5] and in test [6] was > 100 µM (inactive) each time. Further, the GI50 in test [7] was 63.2 µM (inactive); in test [8], > 100 µM (inactive); in test [9], > 100 µM (inactive); in [10], > 100 µM (inactive); in test [11] it was > 100 µM (inactive); in test [12], > 100 µM (inactive). The GI50 in test [13] is > 100 µM (inactive); in [14], > 100 µM (inactive); in [15], > 100 µM (inactive); in test [16], 84.5 µM (inactive); in test [17], > 100 µM (inactive); in test [20], > 100 µM (inactive). The GI50 in [18] and in [19] was > 100 µM (inactive) in each case.
As for `COc1ccc(/C=C/C(=O)c2nc3ccccc3[nH]2)cc1`, the GI50 in [1] is 9.91 µM (inactive); in test [2] it was 22.5 µM (inactive); in test [3] it was 14 µM (inactive); in [4], 11.6 µM (inactive); in [5], 28.6 µM (inactive); in test [6], 25.7 µM (inactive). For the same compound, the GI50 in test [7] was 17.6 µM (inactive); in [8], 5.32 µM (inactive); in test [9], 15.5 µM (inactive); in [10], 13.5 µM (inactive); in test [11] it was 8.32 µM (inactive); in test [12], > 100 µM (inactive). Moreover, the GI50 was 25.4 µM (inactive) in [14]; 21 µM (inactive) in test [15]; 18.2 µM (inactive) in test [16]; 3.8 µM (inactive) in test [17]; 15.7 µM (inactive) in test [20]; 10.7 µM (inactive) in test [18]. Besides, the GI50 in test [19] was 17.9 µM (inactive).
Consider `CC(=N\N=C\c1ccccn1)/C(C)=N/N=C/c1ccccn1`, for which the GI50 in [1], in [2], in test [3], in test [4], in [5] and in [6] was > 100 µM (inactive) throughout. For the same compound, the GI50 in [8], in test [9], in test [10], in test [11], in test [12] and in test [13] was > 100 µM (inactive) in each case. The GI50 in test [14], in test [15], in test [16], in test [17], in test [20] and in test [18] was > 100 µM (inactive) each time. For the same compound, the GI50 in test [19] was 98.4 µM (inactive).
Regarding `O=C1CCN2C(=N1)Sc1ccccc12`, the GI50 in test [1], in test [2], in [3], in test [4], in test [5] and in test [6] was > 100 µM (inactive) each time. For the same compound, the GI50 in [7], in test [8], in [9], in test [10], in [11] and in [12] was > 100 µM (inactive) each time. Moreover, the GI50 in test [13], in [14], in [15], in [16], in test [17] and in [18] was > 100 µM (inactive) throughout. In test [19], the GI50 is > 100 µM (inactive).
`N#Cc1c2ccc([N+](=O)[O-])cc2c(=O)n2c1sc1ccc(C(F)(F)F)cc12`: the GI50 in test [1], in test [2], in test [3], in test [4], in [6] and in [8] was > 100 µM (inactive) each time. The GI50 in test [9], in test [10], in [11], in [13], in [14] and in test [15] was > 100 µM (inactive) in each case. In addition, the GI50 in test [16], in test [17], in test [20], in test [18] and in [19] was > 100 µM (inactive) in each case.
